Biological target: T1, CysLT2 (Homo sapiens, UniProt Q9NS75)
T1 construct: expressed in transfected cells; membranes used
T1 sequence (Q9NS75 1-346): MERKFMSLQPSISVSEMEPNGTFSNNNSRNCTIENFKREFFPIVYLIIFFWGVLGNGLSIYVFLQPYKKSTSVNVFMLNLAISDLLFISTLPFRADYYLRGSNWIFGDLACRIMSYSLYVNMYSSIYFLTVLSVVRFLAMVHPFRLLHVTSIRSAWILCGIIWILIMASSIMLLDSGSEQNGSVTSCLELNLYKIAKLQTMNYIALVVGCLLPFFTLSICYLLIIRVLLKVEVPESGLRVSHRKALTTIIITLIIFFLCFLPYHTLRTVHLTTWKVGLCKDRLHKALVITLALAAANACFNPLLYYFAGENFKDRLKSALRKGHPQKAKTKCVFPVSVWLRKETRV
Test: Competition for [^3H]LTD4-specific binding to CysLT2 membranes
Description: Membrane preparation for CysLT2 receptor binding assay. Peak stable cells transformed with CysLT2 expression vector were maintained in D-MEM supplemented with 10% FCS and 2 μg/ml of puromycin. Cells were collected and kept at −80° C. until membrane preparation. Frozen cells were suspended in cold membrane preparation buffer (50 mM Tris-HCl pH 7.5, protease inhibitor mixture(#1873580, Roche)), and disrupted with Polytron (Cat.#PT10-35, Kinematica AG, Switzerland). Disrupted cells were centrifuged at 500×g for 5 minutes at 4° C. to remove the nuclear fraction, and supernatants were applied to high speed centrifugation (45,000×g, 15 minutes, 4° C.) to precipitate membrane fraction. After the supernatant was removed, membrane preparation buffer were added to the pellet and homogenized gently on ice. Glycerol (final conc.;10%) and bovine serum albumin (final conc.:0.5%, Cat#A-3059, Sigma) were added to the membrane suspension as stabilizer. Membrane suspension was then divided into small vials and frozen in liquid nitrogen. After 1 hour freezing, vials were kept at −80° C. until use.
At the end of the binding reaction, 100 μl of the reaction mixture was transferred to a 96-well filtration plate (Cat.#MAFB-N0B, Millipore), and washed 3 times with 200 μl/well of cold binding buffer. […] The specific binding (total binding—non-specific binding) was measured by liquid scintillation counter (TopCount™, Packard) and expressed as the relative binding (%) in the figure.
Inhibition assay using several antagonists.

| IC50 | inhibition of [^3H]LTD4 binding to CysLT2 (at concentrations up to 10^−6 M, 0.4 nM [^3H]-labeled LTD4) | SMILES |
| --- | --- | --- |
| 1000 nM |  | O=C(O)CCCNC(=O)c1cc(C(=O)O)ccc1OCCCc1ccc(OCCCCOc2ccccc2)cc1 [Bay y8934] |
| 2000 nM |  | CCOC(=O)c1cn(-c2ccc(C3=CC(F)(F)C3(F)F)cc2)c2cc(F)c(F)cc2c1=O [Bay y9773] |
|  | did not inhibit | CCCCC/C=C\C[C@@H](O)/C=C/C=C/C=C\[C@@H](O)CCCC(=O)O [LTB4, Leukotriene B4] |
